Measurements reported in US12233161B1, “Lipids and lipid nanoparticle formulations” (LONGUIDE BIOPHARMA CORPORATION, priority 2024, dated 2025).

Columns and labels:
[1] = tested on: mice; assay: In vivo delivery of FLuc-circ-RNA lipid nanoparticles in mice; details: Fluc-circ-RNA LNP, IV
Protocol: Lipid nanoparticles loaded with nucleic acid drugs were prepared according to step 2, replacing FLuc-mRNA with FLuc-circ-RNA (Hongene Biotech Corporation, Shanghai). After formulation, the nanoparticles were administered via intramuscular injection (into the quadriceps femoris muscle of mice), intravenous injection (into the tail vein of mice), intraperitoneal injection, or subcutaneous injection (subcutaneously on the back). Approximately 75 μL was injected per mouse, with a total of 3 mice per group. In vivo imaging (PerkinElmer, IVIS Lumina III) was performed after a certain period of time. Ten to fifteen minutes before imaging, 200 μL of a 15 mg/mL D-Luciferin working solution was injected intraperitoneally, followed by imaging analysis using the in vivo imaging system.

[2] = tested on: mice; assay: In vivo delivery of FLuc-mRNA lipid nanoparticles in mice, in vivo imaging (IVIS)
Procedure, shortened: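 Mice (n=3) received about 75 μL FLuc-mRNA LNP per mouse intramuscularly (rectus femoris), intravenously (tail vein), intraperitoneally or subcutaneously (back). After injection, D-luciferin (200 μL, 15 mg/mL) was given i.p. 10-15 min before IVIS imaging.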

[3] = Particle size and PDI of nucleic acid lipid nanoparticle preparations by dynamic light scattering; format: physicochemical
Procedure, shortened: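 Nanoparticle suspension (about 0.04 mg/mL mRNA) diluted in ultrapure water, mixed by gentle pipetting; particle size measured by dynamic light scattering. Zeta potential measured on the recovered sample after further dilution in ultrapure water.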

[4] = Potential characterization of nucleic acid lipid nanoparticle preparations; format: physicochemical; details: Fluc-circ-RNA LNP, preparation given IV
Procedure, shortened: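 Zeta potential was read on a Malvern ZEN3700 after diluting 20 μL lipid nanoparticle solution (about 0.04 mg/mL mRNA) into 780 μL ultrapure water. Alternatively, a 27.5 μL sample in 200 μL water was first sized by dynamic light scattering, then diluted with 600 μL more water for potential measurement.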

[5] = DMG-PEG2000:DSPC:Chol:Lipid 1.00:11.50:22.50:65.00, N/P 65, IV, liver
[6] = DMG-PEG2000:DSPC:Chol:Lipid 1.00:11.50:22.50:65.00, N/P 65, IV, lung
[7] = DMG-PEG2000:DSPC:Chol:Lipid 1.00:11.50:22.50:65.00, N/P 65, IV, spleen
[8] = DMG-PEG2000:DSPC:Chol:Lipid 1.00:16.00:48.00:35.00, N/P 18, IV, liver
[9] = DMG-PEG2000:DSPC:Chol:Lipid 1.00:16.00:48.00:35.00, N/P 18, IV, lung
[10] = DMG-PEG2000:DSPC:Chol:Lipid 1.00:16.00:48.00:35.00, N/P 18, IV, spleen
[11] = DMG-PEG2000:DSPC:Chol:Lipid 1.00:16.00:48.00:35.00, N/P 30, IV, liver
[12] = DMG-PEG2000:DSPC:Chol:Lipid 1.00:16.00:48.00:35.00, N/P 30, IV, lung
[13] = DMG-PEG2000:DSPC:Chol:Lipid 1.00:16.00:48.00:35.00, N/P 30, IV, spleen
[14] = DMG-PEG2000:DSPC:Chol:Lipid 1.00:11.50:22.50:65.00, N/P 65, mRNA LNP
[15] = DMG-PEG2000:DSPC:Chol:Lipid 1.00:16.00:48.00:35.00, N/P 18, mRNA LNP
[16] = DMG-PEG2000:DSPC:Chol:Lipid 1.00:16.00:48.00:35.00, N/P 30, mRNA LNP
[17] = DMG-PEG2000:DSPC:Chol:Lipid 1.47:11.16:38.97:48.40, N/P 30, mRNA LNP
[18] = Fluc-circ-RNA LNP, preparation given IV

PDI [3, 14]: 0.22 ± 0.01 | Particle size [3, 14]: 145.43 ± 1.37 nm | PDI [3, 15]: 0.16 ± 0.03 | Particle size [3, 15]: 135.90 ± 1.28 nm | PDI [3, 16]: 0.18 ± 0.02 | Particle size [3, 16]: 137.37 ± 1.50 nm | PDI [3, 17]: 0.24 ± 0.02 | Particle size [3, 17]: 93.36 ± 1.24 nm | PDI [3, 18]: 0.16 | Particle size (nm) [3, 18]: 128.4 nm | Zeta potential (mV) [4]: 15.53 mV
Compound: CCCCCCCCCCCCOC(=O)C(O)CN(CCN(C)CCN(CC(O)C(=O)OCCCCCCCCCCCC)CC(O)C(=O)OCCCCCCCCCCCC)CC(O)C(=O)OCCCCCCCCCCCC (stereo not shown) [Compound L0262]
% of organ targeting ([1]; liver): 3.78% | % of organ targeting ([1]; lung): 8.14% | % of organ targeting ([1]; spleen): 88.08% | IVIS ([2]; DMG-PEG2000:DSPC:Chol:Lipid 1.00:11.50:22.50:65.00, N/P 65, IV, body): 2.54 × 10^7 | % of organ targeting [2, 5]: 1.47% | IVIS [2, 5]: 1.32 × 10^6 | % of organ targeting [2, 6]: 85.62% | IVIS [2, 6]: 7.69 × 10^7 | % of organ targeting [2, 7]: 12.91% | IVIS [2, 7]: 1.16 × 10^7 | IVIS ([2]; DMG-PEG2000:DSPC:Chol:Lipid 1.00:16.00:48.00:35.00, N/P 18, IV, body): 1.06 × 10^8 | % of organ targeting [2, 8]: 5.38% | IVIS [2, 8]: 5.61 × 10^6 | % of organ targeting [2, 9]: 1.85% | IVIS [2, 9]: 1.93 × 10^6 | % of organ targeting [2, 10]: 92.76% | IVIS [2, 10]: 9.67 × 10^7 | IVIS ([2]; DMG-PEG2000:DSPC:Chol:Lipid 1.00:16.00:48.00:35.00, N/P 30, IV, body): 2.91 × 10^7 | % of organ targeting [2, 11]: 15.31% | IVIS [2, 11]: 3.92 × 10^6 | % of organ targeting [2, 12]: 11.64% | IVIS [2, 12]: 2.98 × 10^6 | % of organ targeting [2, 13]: 73.05% | IVIS [2, 13]: 1.87 × 10^7 | IVIS ([2]; DMG-PEG2000:DSPC:Chol:Lipid 1.47:11.16:38.97:48.40, N/P 30, IM, whole body scan): 2.83 × 10^5 | tissue-targeting specificity (lung vs spleen depending on molar percentage of compound) ([2]; certain formulations, Table 2): strong tissue-targeting specificity
